Laboratory results from US11725036B2, “Modified lipidated relaxin B chain peptides and their therapeutic use” (Sanofi, priority 2018, dated 2023).
Starred links: 1 amine or outer side, 2 acyl side, 3 side chain; linkers in the order of their positions; H or OH if unused. Non-standard residues stand in square brackets, D forms with d. Residues, ends and D or L forms follow the SMILES beside them. Groups on a side chain read outwards from the residue. *: point of attachment. X11 = CCCCCCCCCCCCCCCCCC(=O)N[C@@H](CCC(=O)N[C@@H](CCC(=O)N[C@@H](CCC(=O)N[C@@H](CCC(=O)NCCCOCCOCCOCCCNC(=O)CCC(=O)NCCCOCCOCCOCCCNC(=O)CCC(=O)NCCCOCCOCCOCCCN*)C(=O)O)C(=O)O)C(=O)O)C(=O)O; X1 = CCCCCCCCCCCCCCCC(=O)N[C@@H](CCC(=O)N[C@@H](CCC(=O)N[C@@H](CCC(=O)NCCCOCCOCCOCCCNC(=O)CCC(=O)NCCCOCCOCCOCCCNC(=O)CCC(=O)NCCCOCCOCCOCCCN*)C(=O)O)C(=O)O)C(=O)O; X14 = CCCCCCCCCCCCCCCCCC(=O)N[C@@H](CCC(=O)N[C@@H](CCC(=O)N[C@@H](CCC(=O)N[C@@H](CCC(=O)NCCCOCCOCCOCCCNC(=O)CCC(=O)NCCCOCCOCCOCCCN*)C(=O)O)C(=O)O)C(=O)O)C(=O)O; X6 = CCCCCCCCCCCCCC(=O)N[C@@H](CCC(=O)N[C@@H](CCC(=O)N[C@@H](CCC(=O)NCCCOCCOCCOCCCNC(=O)CCC(=O)NCCCOCCOCCOCCCNC(=O)CCC(=O)NCCCOCCOCCOCCCN*)C(=O)O)C(=O)O)C(=O)O; γGlu = O=C(O)[C@H](CCC(=O)[*:2])N[*:1]; Palmitoyl = CCCCCCCCCCCCCCCC(=O)*; Suc = O=C(CCC(=O)[*:2])[*:1]; αMeK = C[C@](N)(CCCCN)C(=O)O; AEEA = NCCOCCOCC(=O)O; Aib = CC(C)(N)C(=O)O

Target: T1, RXFP1 (Homo sapiens, UniProt Q9HBX9)
T1 construct: OVCAR5 cells expressing endogenous RXFP1; endogenous in cells; host or cells: OVCAR5
T1 sequence (Q9HBX9 1-757): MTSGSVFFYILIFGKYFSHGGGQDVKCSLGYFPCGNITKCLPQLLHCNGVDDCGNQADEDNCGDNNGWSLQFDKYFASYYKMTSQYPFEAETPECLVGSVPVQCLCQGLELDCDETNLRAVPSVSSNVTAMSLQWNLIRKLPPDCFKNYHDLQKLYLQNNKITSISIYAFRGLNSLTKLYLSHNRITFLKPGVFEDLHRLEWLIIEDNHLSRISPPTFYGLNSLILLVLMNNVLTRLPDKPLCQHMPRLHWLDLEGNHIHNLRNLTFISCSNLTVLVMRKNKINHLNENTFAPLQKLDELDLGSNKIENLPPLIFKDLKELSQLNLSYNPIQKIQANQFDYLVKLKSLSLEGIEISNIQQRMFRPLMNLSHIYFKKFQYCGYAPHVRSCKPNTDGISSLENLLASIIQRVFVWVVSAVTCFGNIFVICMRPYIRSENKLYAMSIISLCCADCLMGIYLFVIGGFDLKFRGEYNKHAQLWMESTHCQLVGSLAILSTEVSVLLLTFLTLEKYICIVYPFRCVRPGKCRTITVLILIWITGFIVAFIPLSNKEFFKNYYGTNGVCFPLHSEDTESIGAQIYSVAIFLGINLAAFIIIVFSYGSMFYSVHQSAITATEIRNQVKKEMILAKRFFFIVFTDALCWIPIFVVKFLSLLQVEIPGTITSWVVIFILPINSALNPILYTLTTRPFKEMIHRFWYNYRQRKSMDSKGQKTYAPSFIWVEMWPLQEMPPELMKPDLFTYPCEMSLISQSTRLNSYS
Assay: OVCAR5 cAMP assay (HTRF)
Type: cell-based
Conditions: for EC50: OVCAR 5 cells expressing endogenous RXFP1, cAMP readout; for Emax: OVCAR 5 cells, maximal cAMP relative to H2-relaxin
How it was run: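 Peptide agonism measured as intracellular cAMP (HTRF) after 30 min at 37° C in serum-free medium, following 40 min 1 mM IBMX preincubation of OVCAR5 cells. Nonlinear regression gave EC50; Emax % = 100 × compound maximal cAMP / H2-relaxin maximal cAMP.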

Row | Structure (SMILES) | EC50 [nM] | Emax [%]
1 | CCCCCCCCCCCCCCCC(=O)N[C@@H](CCC(=O)N[C@@H](CCC(=O)N[C@@H](CCC(=O)NCCCOCCOCCOCCCNC(=O)CCC(=O)NCCCOCCOCCOCCCNC(=O)CCC(=O)NCCCOCCOCCOCCCNC(=O)CCC(=O)NCCCC[C@H](NC(=O)CNC(=O)[C@H](CCC(=O)O)NC(=O)C(C)(C)NC(=O)C(C)(C)NC(=O)[C@@H](NC(=O)[C@H](CCCCNC(C)=O)NC(=O)C(C)(C)NC(=O)[C@H](CCCNC(=N)N)NC(=O)[C@@H](NC(=O)[C@H](CCCCN)NC(=O)[C@H](CCC(=O)O)NC(=O)[C@H](CCCNC(=N)N)NC(=O)CNC(=O)[C@H](CCC(=O)O)NC(=O)[C@H](CC(C)C)NC(C)=O)C(C)C)[C@@H](C)CC)C(=O)N[C@@H](CO)C(=O)N[C@H](C(=O)N[C@@H](Cc1ccccc1)C(=O)N[C@@H](CO)C(=O)N[C@@](C)(CCCCN)C(=O)N[C@@H](CCCNC(=N)N)C(=O)N[C@@H](C)C(=O)N[C@@H](CCCCNC(C)=O)C(N)=O)[C@@H](C)O)C(=O)O)C(=O)O)C(=O)O [compound 29] (Ac-LEGREKVR[Aib]K(Ac)I[Aib][Aib]EGK([Suc-X1])STFS[αMeK]RAK(Ac)-NH2) | 1.6 | 88
2 | CCCCCCCCCCCCCCCC(=O)N[C@@H](CCC(=O)N[C@@H](CCC(=O)N[C@@H](CCC(=O)NCCOCCOCC(=O)NCCOCCOCC(=O)NCCOCCOCC(=O)NCCOCCOCC(=O)NCCCC[C@H](NC(=O)CNC(=O)[C@H](CCC(=O)O)NC(=O)C(C)(C)NC(=O)C(C)(C)NC(=O)[C@@H](NC(=O)[C@H](CCCCNC(C)=O)NC(=O)[C@H](C)NC(=O)[C@H](CCCNC(=N)N)NC(=O)[C@@H](NC(=O)[C@H](CCCCN)NC(=O)[C@H](CCC(=O)O)NC(=O)[C@H](CCCNC(=N)N)NC(=O)CNC(=O)[C@H](CCC(=O)O)NC(=O)[C@H](CC(C)C)NC(C)=O)C(C)C)[C@@H](C)CC)C(=O)N[C@@H](CO)C(=O)N[C@H](C(=O)N[C@@H](Cc1c[nH]c2ccccc12)C(=O)N[C@@H](CO)C(=O)N[C@@](C)(CCCCN)C(=O)N[C@@H](CCCNC(=N)N)C(=O)N[C@@H](C)C(=O)N[C@@H](CCCCNC(C)=O)C(N)=O)[C@@H](C)O)C(=O)O)C(=O)O)C(=O)O [compound 42] (Ac-LEGREKVRAK(Ac)I[Aib][Aib]EGK([AEEA-AEEA-AEEA-AEEA-γGlu-γGlu-γGlu-Palmitoyl])STWS[αMeK]RAK(Ac)-NH2) | 1.5 | 84
3 | CCCCCCCCCCCCCCCC(=O)N[C@@H](CCC(=O)N[C@@H](CCC(=O)N[C@@H](CCC(=O)NCCCOCCOCCOCCCNC(=O)CCC(=O)NCCCOCCOCCOCCCNC(=O)CCC(=O)NCCCOCCOCCOCCCNC(=O)CCC(=O)NCCCC[C@H](NC(=O)CNC(=O)[C@H](CCC(=O)O)NC(=O)C(C)(C)NC(=O)C(C)(C)NC(=O)[C@@H](NC(=O)[C@H](CCCCNC(C)=O)NC(=O)C(C)(C)NC(=O)[C@H](CCCNC(=N)N)NC(=O)[C@@H](NC(=O)[C@H](CCCCN)NC(=O)[C@H](CCC(=O)O)NC(=O)[C@H](CCCNC(=N)N)NC(=O)CNC(=O)[C@H](CCC(=O)O)NC(=O)[C@H](CC(C)C)NC(C)=O)C(C)C)[C@@H](C)CC)C(=O)N[C@@H](CO)C(=O)N[C@H](C(=O)N[C@@H](Cc1c[nH]c2ccccc12)C(=O)N[C@@H](CO)C(=O)NC(C)(C)C(=O)N[C@@H](CCCNC(=N)N)C(=O)N[C@@H](CCCCN)C(=O)N[C@@H](CCCCNC(C)=O)C(N)=O)[C@@H](C)O)C(=O)O)C(=O)O)C(=O)O [compound 82] (Ac-LEGREKVR[Aib]K(Ac)I[Aib][Aib]EGK([Suc-X1])STWS[Aib]RKK(Ac)-NH2) |  | 95
4 | CCCCCCCCCCCCCCCC(=O)N[C@@H](CCC(=O)N[C@@H](CCC(=O)N[C@@H](CCC(=O)NCCCOCCOCCOCCCNC(=O)CCC(=O)NCCCOCCOCCOCCCNC(=O)CCC(=O)NCCCOCCOCCOCCCNC(=O)CCC(=O)NCCCC[C@H](NC(=O)CNC(=O)[C@H](CCC(=O)O)NC(=O)C(C)(C)NC(=O)C(C)(C)NC(=O)[C@@H](NC(=O)[C@H](CCCCNC(C)=O)NC(=O)[C@H](C)NC(=O)[C@H](CCCNC(=N)N)NC(=O)[C@@H](NC(=O)[C@H](CC(C)C)NC(=O)[C@H](CCC(=O)O)NC(=O)[C@H](CCCNC(=N)N)NC(=O)CNC(=O)[C@H](CCC(=O)O)NC(=O)[C@H](CC(C)C)NC(C)=O)C(C)C)[C@@H](C)CC)C(=O)N[C@@H](CO)C(=O)N[C@H](C(=O)N[C@@H](Cc1c[nH]c2ccccc12)C(=O)N[C@@H](CO)C(=O)NC(C)(C)C(=O)N[C@@H](CCCNC(=N)N)C(=O)N[C@@H](CCCNC(=N)N)C(=O)N[C@@H](CCCCNC(C)=O)C(N)=O)[C@@H](C)O)C(=O)O)C(=O)O)C(=O)O [compound 37] (Ac-LEGRELVRAK(Ac)I[Aib][Aib]EGK([Suc-X1])STWS[Aib]RRK(Ac)-NH2) | 5.6 | 98

More lines, now with the values ahead:

Row | EC50 [nM] | Emax [%] | Structure (SMILES)
5 | 0.1 | 98 | CCCCCCCCCCCCCCCCCC(=O)N[C@@H](CCC(=O)N[C@@H](CCC(=O)N[C@@H](CCC(=O)N[C@@H](CCC(=O)NCCCOCCOCCOCCCNC(=O)CCC(=O)NCCCOCCOCCOCCCNC(=O)CCC(=O)NCCCOCCOCCOCCCNC(=O)CCC(=O)NCCCC[C@H](NC(=O)CNC(=O)[C@H](CCC(=O)O)NC(=O)C(C)(C)NC(=O)C(C)(C)NC(=O)[C@@H](NC(=O)[C@H](CCCCNC(C)=O)NC(=O)[C@H](C)NC(=O)[C@H](CCCNC(=N)N)NC(=O)[C@@H](NC(=O)[C@H](CCCCN)NC(=O)[C@H](CCC(=O)O)NC(=O)[C@H](CCCNC(=N)N)NC(=O)CNC(=O)[C@H](CCC(=O)O)NC(=O)[C@H](CC(C)C)NC(C)=O)C(C)C)[C@@H](C)CC)C(=O)N[C@@H](CO)C(=O)N[C@H](C(=O)N[C@@H](Cc1c[nH]c2ccccc12)C(=O)N[C@@H](CO)C(=O)NC(C)(C)C(=O)N[C@@H](CCCNC(=N)N)C(=O)N[C@@H](CCCCN)C(=O)N[C@@H](CCCCNC(C)=O)C(N)=O)[C@@H](C)O)C(=O)O)C(=O)O)C(=O)O)C(=O)O [compound 51] (Ac-LEGREKVRAK(Ac)I[Aib][Aib]EGK([Suc-X11])STWS[Aib]RKK(Ac)-NH2)
6 | 0.88 | 92 | CCCCCCCCCCCCCC(=O)N[C@@H](CCC(=O)N[C@@H](CCC(=O)N[C@@H](CCC(=O)NCCCOCCOCCOCCCNC(=O)CCC(=O)NCCCOCCOCCOCCCNC(=O)CCC(=O)NCCCOCCOCCOCCCNC(=O)CCC(=O)NCCCC[C@H](NC(=O)CNC(=O)[C@H](CCC(=O)O)NC(=O)C(C)(C)NC(=O)C(C)(C)NC(=O)[C@@H](NC(=O)[C@H](CCCCNC(C)=O)NC(=O)[C@H](C)NC(=O)[C@H](CCCNC(=N)N)NC(=O)[C@@H](NC(=O)[C@H](CCCCN)NC(=O)[C@H](CCC(=O)O)NC(=O)[C@H](CCCNC(=N)N)NC(=O)CNC(=O)[C@H](CCC(=O)O)NC(=O)[C@H](CC(C)C)NC(C)=O)C(C)C)[C@@H](C)CC)C(=O)N[C@@H](CO)C(=O)N[C@H](C(=O)N[C@@H](Cc1ccccc1)C(=O)N[C@@H](CO)C(=O)N[C@@](C)(CCCCN)C(=O)N[C@@H](CCCNC(=N)N)C(=O)N[C@@H](C)C(=O)N[C@@H](CCCCN)C(N)=O)[C@@H](C)O)C(=O)O)C(=O)O)C(=O)O [compound 96] (Ac-LEGREKVRAK(Ac)I[Aib][Aib]EGK([Suc-X6])STFS[αMeK]RAK-NH2)
7 | 0.16 | 96 | CCCCCCCCCCCCCCCCCC(=O)N[C@@H](CCC(=O)N[C@@H](CCC(=O)N[C@@H](CCC(=O)N[C@@H](CCC(=O)NCCCOCCOCCOCCCNC(=O)CCC(=O)NCCCOCCOCCOCCCNC(=O)CCC(=O)NCCCC[C@H](NC(=O)CNC(=O)[C@H](CCC(=O)O)NC(=O)C(C)(C)NC(=O)C(C)(C)NC(=O)[C@@H](NC(=O)[C@H](CCCCNC(C)=O)NC(=O)[C@H](C)NC(=O)[C@H](CCCNC(=N)N)NC(=O)[C@@H](NC(=O)[C@H](CCCCN)NC(=O)[C@H](CCC(=O)O)NC(=O)[C@H](CCCNC(=N)N)NC(=O)CNC(=O)[C@H](CCC(=O)O)NC(=O)[C@H](CC(C)C)NC(C)=O)C(C)C)[C@@H](C)CC)C(=O)N[C@@H](CO)C(=O)N[C@H](C(=O)N[C@@H](Cc1c[nH]c2ccccc12)C(=O)N[C@@H](CO)C(=O)NC(C)(C)C(=O)N[C@@H](CCCNC(=N)N)C(=O)N[C@@H](CCCCN)C(=O)N[C@@H](CCCCNC(C)=O)C(N)=O)[C@@H](C)O)C(=O)O)C(=O)O)C(=O)O)C(=O)O [compound 54] (Ac-LEGREKVRAK(Ac)I[Aib][Aib]EGK([Suc-X14])STWS[Aib]RKK(Ac)-NH2)
